Test results from patent publication US4100346A, “Certain 7(o-amino-methyl- or methylaminomethylphenyl- or cyclohexadienyl- or thienylacetamide)-3[1-carboxymethyl-(or ethyl- or propyl-)-tetrazol-5-ylthiomethyl]-3-cephem-4-carboxylic acids” (Bristol-Myers Company, priority 1976, dated 1978).
Converted amounts (≈) assume the structure as drawn. Where two headings read alike, the source gives them in different places.

How the values were obtained:
Listeria monocytogenes = assay: Growth inhibitory activity, antibiotic dilution technique; conditions: read-out: Minimum inhibitory concentration
Pasteurella multocida = assay: as above; conditions: read-out: Minimum inhibitory concentration
Enterobacter aerogenes = assay: Effect of inoculum size on susceptibility of Enterobacteriaceae; conditions: Klebsiella aerogenes, read-out: Minimum Inhibitory Concentration, Enterobacter aerogenes strain 1
Proteus mirabilis = assay: as above
Edwardsiella tarda = assay: Growth inhibitory activity, antibiotic dilution technique; conditions: read-out: Minimum inhibitory concentration
Proteus rettgeri = assay: Effect of inoculum size on susceptibility of Enterobacteriaceae; conditions: Providencia rettgeri
Staphylococcus Aureus = assay: Effect of inoculum size on susceptibility of Staphylococcus aureus; type: cell-based; conditions: for MIC: Staphylococcus aureus, geometric means, read-out: Minimum inhibitory concentration
Enterobacter cloacae = assay: Effect of inoculum size on susceptibility of Enterobacteriaceae
Escherichia coli = assay: as above
Citrobacter sp. = assay: Growth inhibitory activity, antibiotic dilution technique
Neisseria gonorrhoeae = assay: as above
[1] = Antibiotic concentration in blood after intramuscular injection; conditions: mouse, im, 20 mg/kg
Erwinia sp. = assay: Growth inhibitory activity, antibiotic dilution technique; conditions: read-out: Minimum inhibitory concentration
Klebsiella pneumoniae = assay: Effect of inoculum size on susceptibility of Enterobacteriaceae
Bacteroides Fragilis = assay: Growth inhibitory activity, antibiotic dilution technique (obligate anaerobes); type: cell-based; conditions: 3 strains, geometric mean when applicable, read-out: Minimum inhibitory concentration
Method: Antibiotic spectrum. […] Procedures were as follows:
c. Obligate anaerobes. The assay was performed on solid medium, consisting of Brain Heart Infusion Broth (BBL) supplemented with 5% defibrinated sheep blood and 1% Ionagar (Colab). […] The plates were incubated at 37° C. for 48 hours under the oxygen-free conditions attained with a Gas-Pak (BBL) Brewer jar system.

SMILES: Cc1nnc(SCC2=C(C(=O)O)N3C(=O)[C@@H](NC(=O)Cn4cnnn4)[C@H]3SC2)s1 [Cefazolin]
- MIC (Listeria monocytogenes): 1.2 µg/mL (≈ 2.64 µM)
- MIC (Pasteurella multocida): 0.5 µg/mL (≈ 1.1 µM)
- MIC (Enterobacter aerogenes; A, Inoculum of 10^2 organisms): 16 µg/mL (≈ 35.2 µM)
- MIC (Enterobacter aerogenes; B, Inoculum of 10^6 organisms): > 250 µg/mL
- MIC (Proteus mirabilis; read-out: Minimum Inhibitory Concentration, Proteus mirabilis strain 1, A, Inoculum of 10^2 organisms): 4 µg/mL (≈ 8.8 µM)
- MIC (Proteus mirabilis; read-out: Minimum Inhibitory Concentration, Proteus mirabilis strain 1, B, Inoculum of 10^6 organisms): 8 µg/mL (≈ 17.6 µM)
- MIC (Proteus mirabilis; read-out: Minimum Inhibitory Concentration, Proteus mirabilis strain 2, A, Inoculum of 10^2 organisms): 4 µg/mL (≈ 8.8 µM)
- MIC (Proteus mirabilis; read-out: Minimum Inhibitory Concentration, Proteus mirabilis strain 2, B, Inoculum of 10^6 organisms): 16 µg/mL (≈ 35.2 µM)
- MIC (Proteus mirabilis; read-out: Minimum Inhibitory Concentration, Proteus mirabilis strain 3, A, Inoculum of 10^2 organisms): 8 µg/mL (≈ 17.6 µM)
- MIC (Proteus mirabilis; read-out: Minimum Inhibitory Concentration, Proteus mirabilis strain 3, B, Inoculum of 10^6 organisms): 32 µg/mL (≈ 70.4 µM)
- MIC (Proteus mirabilis; read-out: Minimum Inhibitory Concentration, Proteus mirabilis strain 4, A, Inoculum of 10^2 organisms): 4 µg/mL (≈ 8.8 µM)
- MIC (Proteus mirabilis; read-out: Minimum Inhibitory Concentration, Proteus mirabilis strain 4, B, Inoculum of 10^6 organisms): 32 µg/mL (≈ 70.4 µM)
- MIC (Proteus mirabilis; read-out: Minimum Inhibitory Concentration, Proteus mirabilis strain 5, A, Inoculum of 10^2 organisms): 4 µg/mL (≈ 8.8 µM)
- MIC (Proteus mirabilis; read-out: Minimum Inhibitory Concentration, Proteus mirabilis strain 5, B, Inoculum of 10^6 organisms): 16 µg/mL (≈ 35.2 µM)
- MIC (Edwardsiella tarda): 0.71 µg/mL (≈ 1.56 µM)
- MIC (Proteus rettgeri; read-out: Minimum Inhibitory Concentration, Proteus rettgeri strain 1, A, Inoculum of 10^2 organisms): 0.5 µg/mL (≈ 1.1 µM)
- MIC (Proteus rettgeri; read-out: Minimum Inhibitory Concentration, Proteus rettgeri strain 1, B, Inoculum of 10^6 organisms): > 250 µg/mL
- MIC (Proteus rettgeri; read-out: Minimum Inhibitory Concentration, Proteus rettgeri strain 2, A, Inoculum of 10^2 organisms): 0.25 µg/mL (≈ 0.55 µM)
- MIC (Proteus rettgeri; read-out: Minimum Inhibitory Concentration, Proteus rettgeri strain 2, B, Inoculum of 10^6 organisms): > 250 µg/mL
- MIC (Proteus rettgeri; read-out: Minimum Inhibitory Concentration, Proteus rettgeri strain 3, A, Inoculum of 10^2 organisms): 2 µg/mL (≈ 4.4 µM)
- MIC (Proteus rettgeri; read-out: Minimum Inhibitory Concentration, Proteus rettgeri strain 3, B, Inoculum of 10^6 organisms): > 250 µg/mL
- MIC (Staphylococcus Aureus; Lacking penicillinase, 3 strains, A, Inoculum of 10^2 organisms): 0.13 µg/mL (≈ 0.286 µM)
- MIC (Staphylococcus Aureus; Lacking penicillinase, 3 strains, B, inoculum of 10^6 organisms): 0.2 µg/mL (≈ 0.44 µM)
- MIC (Staphylococcus Aureus; Penicillinase producer, 26 strains, A, Inoculum of 10^2 organisms): 0.22 µg/mL (≈ 0.484 µM)
- MIC (Staphylococcus Aureus; Penicillinase producer, 26 strains, B, inoculum of 10^6 organisms): 0.79 µg/mL (≈ 1.74 µM)
- effect of cell concentration on growth inhibitory activity (Staphylococcus Aureus; penicillinase-producing strains): moderately
- MIC (Enterobacter cloacae; read-out: Minimum Inhibitory Concentration, Enterobacter cloacae strain 1, A, Inoculum of 10^2 organisms): 2 µg/mL (≈ 4.4 µM)
- MIC (Enterobacter cloacae; read-out: Minimum Inhibitory Concentration, Enterobacter cloacae strain 1, B, Inoculum of 10^6 organisms): > 250 µg/mL
- MIC (Enterobacter cloacae; read-out: Minimum Inhibitory Concentration, Enterobacter cloacae strain 2, A, Inoculum of 10^2 organisms): 32 µg/mL (≈ 70.4 µM)
- MIC (Enterobacter cloacae; read-out: Minimum Inhibitory Concentration, Enterobacter cloacae strain 2, B, Inoculum of 10^6 organisms): > 250 µg/mL
- MIC (Enterobacter cloacae; read-out: Minimum Inhibitory Concentration, Enterobacter cloacae strain 3, A, Inoculum of 10^2 organisms): 8 µg/mL (≈ 17.6 µM)
- MIC (Enterobacter cloacae; read-out: Minimum Inhibitory Concentration, Enterobacter cloacae strain 3, B, Inoculum of 10^6 organisms): 250 µg/mL (≈ 550 µM)
- MIC (Enterobacter cloacae; read-out: Minimum Inhibitory Concentration, Enterobacter cloacae strain 4, A, Inoculum of 10^2 organisms): 63 µg/mL (≈ 139 µM)
- MIC (Enterobacter cloacae; read-out: Minimum Inhibitory Concentration, Enterobacter cloacae strain 4, B, Inoculum of 10^6 organisms): > 250 µg/mL
- MIC (Enterobacter cloacae; read-out: Minimum Inhibitory Concentration, Enterobacter cloacae strain 5, A, Inoculum of 10^2 organisms): 8 µg/mL (≈ 17.6 µM)
- MIC (Enterobacter cloacae; read-out: Minimum Inhibitory Concentration, Enterobacter cloacae strain 5, B, Inoculum of 10^6 organisms): > 250 µg/mL
- MIC (Escherichia coli; read-out: Minimum Inhibitory Concentration, Escherichia coli strain 1, A, Inoculum of 10^2 organisms): 1 µg/mL (≈ 2.2 µM)
- MIC (Escherichia coli; read-out: Minimum Inhibitory Concentration, Escherichia coli strain 1, B, Inoculum of 10^6 organisms): 4 µg/mL (≈ 8.8 µM)
- MIC (Escherichia coli; read-out: Minimum Inhibitory Concentration, Escherichia coli strain 2, A, Inoculum of 10^2 organisms): 2 µg/mL (≈ 4.4 µM)
- MIC (Escherichia coli; read-out: Minimum Inhibitory Concentration, Escherichia coli strain 2, B, Inoculum of 10^6 organisms): 16 µg/mL (≈ 35.2 µM)
- MIC (Escherichia coli; read-out: Minimum Inhibitory Concentration, Escherichia coli strain 3, A, Inoculum of 10^2 organisms): 1 µg/mL (≈ 2.2 µM)
- MIC (Escherichia coli; read-out: Minimum Inhibitory Concentration, Escherichia coli strain 3, B, Inoculum of 10^6 organisms): 2 µg/mL (≈ 4.4 µM)
- MIC (Escherichia coli; read-out: Minimum Inhibitory Concentration, Escherichia coli strain 4, A, Inoculum of 10^2 organisms): 1 µg/mL (≈ 2.2 µM)
- MIC (Escherichia coli; read-out: Minimum Inhibitory Concentration, Escherichia coli strain 4, B, Inoculum of 10^6 organisms): 2 µg/mL (≈ 4.4 µM)
- MIC (Escherichia coli; read-out: Minimum Inhibitory Concentration, Escherichia coli strain 5, A, Inoculum of 10^2 organisms): 1 µg/mL (≈ 2.2 µM)
- MIC (Escherichia coli; read-out: Minimum Inhibitory Concentration, Escherichia coli strain 5, B, Inoculum of 10^6 organisms): 2 µg/mL (≈ 4.4 µM)
- MIC (Escherichia coli; read-out: Minimum Inhibitory Concentration, Escherichia coli strain 6, A, Inoculum of 10^2 organisms): 1 µg/mL (≈ 2.2 µM)
- MIC (Escherichia coli; read-out: Minimum Inhibitory Concentration, Escherichia coli strain 6, B, Inoculum of 10^6 organisms): 2 µg/mL (≈ 4.4 µM)
- MIC (Escherichia coli; read-out: Minimum Inhibitory Concentration, Escherichia coli strain 7, A, Inoculum of 10^2 organisms): 1 µg/mL (≈ 2.2 µM)
- MIC (Escherichia coli; read-out: Minimum Inhibitory Concentration, Escherichia coli strain 7, B, Inoculum of 10^6 organisms): 2 µg/mL (≈ 4.4 µM)
- MIC (Citrobacter sp.; read-out: Minimum inhibitory concentration): 75 µg/mL (≈ 165 µM)
- MIC (Citrobacter sp.; read-out: Minimum inhibitory concentration, Citrobacter sp., 1 strain): > 125 µg/mL
- susceptibility of Neisseria gonorrhoeae (Neisseria gonorrhoeae): equally susceptible
- Cmax [1]: 31000 ng/mL
- MIC (Erwinia sp.): 1.5 µg/mL (≈ 3.3 µM)
- MIC (Klebsiella pneumoniae; read-out: Minimum Inhibitory Concentration, Klebsiella pneumoniae strain 1, A, Inoculum of 10^2 organisms): 1 µg/mL (≈ 2.2 µM)
- MIC (Klebsiella pneumoniae; read-out: Minimum Inhibitory Concentration, Klebsiella pneumoniae strain 1, B, Inoculum of 10^6 organisms): 2 µg/mL (≈ 4.4 µM)
- MIC (Klebsiella pneumoniae; read-out: Minimum Inhibitory Concentration, Klebsiella pneumoniae strain 2, A, Inoculum of 10^2 organisms): 1 µg/mL (≈ 2.2 µM)
- MIC (Klebsiella pneumoniae; read-out: Minimum Inhibitory Concentration, Klebsiella pneumoniae strain 2, B, Inoculum of 10^6 organisms): 4 µg/mL (≈ 8.8 µM)
- MIC (Klebsiella pneumoniae; read-out: Minimum Inhibitory Concentration, Klebsiella pneumoniae strain 3, A, Inoculum of 10^2 organisms): 1 µg/mL (≈ 2.2 µM)
- MIC (Klebsiella pneumoniae; read-out: Minimum Inhibitory Concentration, Klebsiella pneumoniae strain 3, B, Inoculum of 10^6 organisms): 4 µg/mL (≈ 8.8 µM)
- MIC (Klebsiella pneumoniae; read-out: Minimum Inhibitory Concentration, Klebsiella pneumoniae strain 4, A, Inoculum of 10^2 organisms): 1 µg/mL (≈ 2.2 µM)
- MIC (Klebsiella pneumoniae; read-out: Minimum Inhibitory Concentration, Klebsiella pneumoniae strain 4, B, Inoculum of 10^6 organisms): 4 µg/mL (≈ 8.8 µM)
- MIC (Klebsiella pneumoniae; read-out: Minimum Inhibitory Concentration, Klebsiella pneumoniae strain 5, A, Inoculum of 10^2 organisms): 1 µg/mL (≈ 2.2 µM)
- MIC (Klebsiella pneumoniae; read-out: Minimum Inhibitory Concentration, Klebsiella pneumoniae strain 5, B, Inoculum of 10^6 organisms): 4 µg/mL (≈ 8.8 µM)
- MIC (Klebsiella pneumoniae; read-out: Minimum Inhibitory Concentration, Klebsiella pneumoniae strain 6, A, Inoculum of 10^2 organisms): 1 µg/mL (≈ 2.2 µM)
- MIC (Klebsiella pneumoniae; read-out: Minimum Inhibitory Concentration, Klebsiella pneumoniae strain 6, B, Inoculum of 10^6 organisms): 32 µg/mL (≈ 70.4 µM)
- MIC (Bacteroides Fragilis): 50 µg/mL (≈ 110 µM)
